ChEMBL document CHEMBL1147064 (Proc Natl Acad Sci U S A, 2007)

How the values were obtained:
[1] = biological target: Botulinum neurotoxin type A (Clostridium botulinum, UniProt P0DPI0)
[2] = Toxicity against mouse Neuro2a cells at =>5 uM; format: cell-based; conditions: n2a

Botulinum neurotoxin type A, sequence (P0DPI0 2-448 limits assumed): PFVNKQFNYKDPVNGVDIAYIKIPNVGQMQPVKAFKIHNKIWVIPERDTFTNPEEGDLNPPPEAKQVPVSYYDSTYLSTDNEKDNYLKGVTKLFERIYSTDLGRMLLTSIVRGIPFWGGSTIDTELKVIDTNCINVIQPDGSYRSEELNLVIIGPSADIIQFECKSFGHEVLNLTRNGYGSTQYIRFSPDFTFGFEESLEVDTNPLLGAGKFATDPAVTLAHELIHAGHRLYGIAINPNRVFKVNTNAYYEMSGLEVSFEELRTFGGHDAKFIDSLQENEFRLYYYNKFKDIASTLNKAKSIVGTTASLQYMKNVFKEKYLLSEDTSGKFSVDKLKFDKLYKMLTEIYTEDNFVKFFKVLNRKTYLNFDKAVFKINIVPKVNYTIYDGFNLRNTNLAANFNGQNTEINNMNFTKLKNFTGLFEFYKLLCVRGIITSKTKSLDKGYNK

Compound	IC50 [1] [µM]	Activity [2]
CCC1CN(C(=O)/C=C/c2ccccc2)CC(=O)N1Cc1ccc(C)cc1 (stereo not drawn)	12.5	–
COc1ccc(CCNC(=O)CN(CC(=O)N[C@H]2C[C@@H]2c2ccccc2)C(=O)Cn2c(C(=O)N[C@H]3CCCC[C@@H]3NC(=O)c3cc4ccccc4n3CC(=O)N(CC(=O)NCCc3ccc(OC)cc3)CC(=O)N[C@@H]3C[C@H]3c3ccccc3)cc3ccccc32)cc1	7.6	–
O=C(/C=C/c1ccc(Cl)cc1Cl)NO [CINNAMIC ACID HYDROXAMATE]	–	Toxic
